Here are results for 1 compound from patent US6525058B1, “Pharmaceutical composition for oral use” (Yamanouchi Pharmaceutical Co., LTD, priority 1999, dated 2003).

SMILES strings stand for the structures. Structures can show the parent of a compound that is named as a salt.

The series in a line: Stability of gantofiban citrate per se and when compounded with common fillers, binders and disintegrating agents. It counts as physicochemical.

On to `CCOC(=O)CN1CCN(C[C@@H]2CN(c3ccc(C(N)=NC(=O)OC)cc3)C(=O)O2)CC1` [gantofiban citrate, 1-ethyl methylester 4-[[(5R)-3-[p-(carboxyamidino)phenyl]-2-oxo-5-oxazolidinyl]methyl]-1-piperazineacetate], for which the “Stability in a preparation containing it” value (compounded with fillers, binders and disintegrating agents (lactose, D-mannitol, finely crystalline cellulose, corn starch etc.)) is recorded as “decomposed with a lapse of time”. Moreover, under “gantofiban citrate alone”, the “Stability of the substance per se” value is reported as “stable substance”.
